Results as given in PMC6541264, “Molecular mechanisms involved in drug-induced liver injury caused by urate-lowering Chinese herbs: A network pharmacology study and biology experiments” (PLoS ONE, 2019).

Columns and labels:
Assay type in all cases: cell-based, human
p38α = assay: Western blot, expression of p-p38α/p38α in L-02 cells, without and with inhibitor SB203580
Excerpt: After the examination of biochemical indicators for hepatotoxicity in the cell, the expression of crucial liver injury protein in L02 cell lines among different groups was compared by Western blot analysis. Briefly, the proteins from different groups were harvested and lysed using lysis buffer (Sigma-Aldrich) containing a proteinase inhibitor cocktail (Sigma-Aldrich), the equal amounts of protein were separated by electrophoresis on a pre-cast 10% SDS-polyacrylamide gel (Bio-Rad, Hercules, CA) and transferred to polyvinylidene difluoride membranes (Millipore, Bedford, MA). Next, the membrane was blocked in TBST-T containing 5% skim milk for 2 h at room temperature and probed with anti-beta-catenin, and incubated overnight with the indicated primary antibody, followed by incubation with the secondary antibodies at room temperature for another 2 h. Finally, all the immune blots were visualized by enhanced chemiluminescence (Pierce Biotechnology, Inc., Rockford, IL, USA) and western blots were performed at least three times.
According to the results of network pharmacology, we examined the expression levels of p38α. […] The Specific specific composition information is was shown in S3 Table. […] However, the mechanism of saikosaponin D causing liver injury still remained unclear.
(§1) To further and fully elucidating the mechanism of the liver injury caused by the representative compounds from urate-lowering Chinese herbs, we chose the p38α inhibitor, SB203580 to verify our findings. Seemingly, the ALT, AST, ALP, and LDH activities of each group decreased to varying degrees under the influence of inhibitor. The specific composition information was shown in S2 Table. […] The Specific specific composition information is was shown in S4 Table.

L-02 cells [1] = assay: Biochemical indicators of hepatotoxicity (ALT, AST, LDH, ALP activity) of L-02 cells, without and with p38 inhibitor SB203580
Experimental: (§2) The normal hepatic cell (L02) cell lines were obtained from the National Infrastructure of Cell Line Resources (Chinese Academy of Medical Sciences, Beijing, China), and maintained in Dulbecco’s modified Eagle’s medium (DMEM, 10-013-CVR) supplemented with 10% fetal bovine serum (FBS, Hyclone), 1% penicillin and streptomycin (PS, 100 IU/ml penicillin, 100 μg/ml streptomycin, Mediatech, 30-002-CI). All cells were incubated in a humidified atmosphere at 37°C with 5% CO2.
To determine how potential liver injury-compounds affected biochemical indicators of L-02 cells, we investigated the activities of AST, ALT, LDH and ALP in cell migration capacity under the different representative compounds conditions (representative compounds group), the inhibitor conditions (inhibitor group), and the negative control. For these experiments, three replicates were made for each concentration of the different representative compounds with liver injury, and each group was established three holes and cultured in 6 times repeatedly. […] Subsequently, the supernatant extraction of L02 cells was collected and centrifuged to detect the activities of AST, ALT, LDH, and ALP by chromatometry method.
as §1, with “Seemingly, the ALT, AST, ALP, and LDH activities of each group decreased to varying degrees under the influence of inhibitor.” left out

[2] = MTT assay, cell viability of L-02 cells; settings: human, L-02 (L02) normal hepatic cells, L-02, MTT, 24 h, read-out: cells viabilityrate
Experimental: as §2
(§3) L-02 cells were trypsinized by 0.25% trypsin after reaching the confluence of 70–80% and plated in 96-well plates at the density of 1.6 × 10^3 […]. And L-02 cells were cultured for 24 hours in vitro before exposure to varying concentrations of different representative compounds with liver injury for further incubating in another 24 hours. Then, 20 μl of 0.25 mg/ml3-(4,5-dimethylthiazol-2-yl)-2,5-diphenyltetrazolium bromide (MTT)-tetrazolium salts (Sigma-Aldrich Corp., St. Louis, MO, USA) in PBS was added to each hole in 96-well plates. After 4 hours of incubation, the formazan crystals were dissolved by 150μl Dimethyl Sulphoxide (DMSO), and shocked to dissolve thoroughly, then the cell viability was measured by MTT method at 570 nm. All experiments were repeated in triplicate independently.

L-02 cells [3] = assay: MTT assay, cell viability of L-02 cells
Experimental: as §2, §3

[4] = S2 Table, L-02, 1000μmol/L+inhibitor (SB203580)
[5] = S2 Table, L-02, 1000μmol/L, no inhibitor
[6] = S2 Table, L-02, 2000μmol/L+inhibitor (SB203580)
[7] = S2 Table, L-02, 2000μmol/L, no inhibitor
[8] = Table 5, L-02 supernatant, 24 h, 1000μmol/L
[9] = Table 5, L-02 supernatant, 24 h, 2000μmol/L
[10] = S2 Table, L-02, 5μmol/L+inhibitor (SB203580)
[11] = S2 Table, L-02, 5μmol/L, no inhibitor
[12] = S2 Table, L-02, 10μmol/L+inhibitor (SB203580)
[13] = S2 Table, L-02, 10μmol/L, no inhibitor
[14] = Table 5, L-02 supernatant, 24 h, 5μmol/L
[15] = Table 5, L-02 supernatant, 24 h, 10μmol/L
[16] = Table 5, L-02 supernatant, 24 h, 15μmol/L

In the case of O=C(O)[C@H]1O[C@@H](Oc2cc3oc(-c4ccccc4)cc(=O)c3c(O)c2O)[C@H](O)[C@@H](O)[C@@H]1O [Baicalin], the “ratios of p-p38α/p38α expression compared with the blank groups, in words” value (p38α; L-02, 10μmol/L diosgein, 2000μmol/L baicalin, 60μmol/L terandrine, 6μmol/L evodiamine) is reported as “increased”, the p-p38α/p38α (p38α; S3 Table, L-02, 24 hours of incubation, 1000μmol/L) is reported as 1.24±0.29 and the p-p38α/p38α (p38α; S3 Table, L-02, 24 hours of incubation, 2000μmol/L) is reported as 2.06±0.66. For the same compound, the p-p38α/p38α (p38α; S4 Table, L-02, 24 hours, 1000μmol/L+inhibitor (SB203580)) was 0.76±0.15, the p-p38α/p38α (p38α; S4 Table, L-02, 24 hours, 1000μmol/L, no inhibitor) was 1.25±0.24 and the p-p38α/p38α (p38α; S4 Table, L-02, 24 hours, 2000μmol/L+inhibitor (SB203580)) was 0.26±0.03. It also gave a p-p38α/p38α (p38α; S4 Table, L-02, 24 hours, 2000μmol/L, no inhibitor) of 1.08±0.6, an ALP (L-02 cells [1]; [4]) of 0.70± 0.05 King's unit /100ml and an ALT (L-02 cells [1]; [4]) of 1.88± 0.20 U/L. It also gave an AST (L-02 cells [1]; [4]) of 4.12± 0.26 U/L, an LDH (L-02 cells [1]; [4]) of 778.83± 14.65 U/L and an ALP (L-02 cells [1]; [5]) of 0.86± 0.06 King's unit /100ml. The ALT (L-02 cells [1]; [5]) was 2.24± 0.30 U/L, the AST (L-02 cells [1]; [5]) was 4.45± 1.09 U/L and the LDH (L-02 cells [1]; [5]) was 699.84± 33.81 U/L. For the same compound, the ALP (L-02 cells [1]; [6]) was 0.85± 0.06 King's unit /100ml, the ALT (L-02 cells [1]; [6]) was 2.27± 0.32 U/L and the AST (L-02 cells [1]; [6]) was 4.38± 0.84 U/L. The LDH (L-02 cells [1]; [6]) was 981.04± 3.87 U/L, the ALP (L-02 cells [1]; [7]) was 0.92± 0.13 King's unit /100ml and the ALT (L-02 cells [1]; [7]) was 2.01± 0.20 U/L. It also gave an AST (L-02 cells [1]; [7]) of 4.48± 0.13 U/L, an LDH (L-02 cells [1]; [7]) of 840.44± 32.45 U/L and an ALP (L-02 cells [1]; [8]) of 2.03±0.44 King's unit /100ml. It also gave an ALT (L-02 cells [1]; [8]) of 4.45±1.09 U/L, an AST (L-02 cells [1]; [8]) of 690.76±33.24 U/L and an LDH (L-02 cells [1]; [8]) of 0.81±0.10 U/L. It also gave an ALP (L-02 cells [1]; [9]) of 1.94±0.21 King's unit /100ml, an ALT (L-02 cells [1]; [9]) of 4.48±0.13 U/L and an AST (L-02 cells [1]; [9]) of 824.64±39.22 U/L. It also gave an LDH (L-02 cells [1]; [9]) of 0.84±0.18 U/L, a viability at 24 h, 1000 μmol/L ([2]; 1000 μmol/L) of 154 ± 21.1% and a viability at 24 h, 2000 μmol/L ([2]; 2000 μmol/L) of 98.6 ± 16.5%. The “effect on L-02 (MTT), in words” value (L-02 cells [3]; dose of 2000μmol/L) was “trend of proliferative effects”.
In the case of O=c1c2ccccc2nc2n1CCc1c-2[nH]c2ccccc12 [Rutaecarpine], the ALP (L-02 cells [1]; [10]) is reported as 1.13± 0.12 King's unit /100ml, the ALT (L-02 cells [1]; [10]) is reported as 5.01± 0.13 U/L and the AST (L-02 cells [1]; [10]) is reported as 9.25± 1.09 U/L. For the same compound, the LDH (L-02 cells [1]; [10]) was 1193.32± 3.90 U/L, the ALP (L-02 cells [1]; [11]) was 1.63± 0.03 King's unit /100ml and the ALT (L-02 cells [1]; [11]) was 6.00± 0.43 U/L. It also gave an AST (L-02 cells [1]; [11]) of 10.33± 0.74 U/L, an LDH (L-02 cells [1]; [11]) of 1105.81± 85.95 U/L and an ALP (L-02 cells [1]; [12]) of 1.39± 0.28 King's unit /100ml. It also gave an ALT (L-02 cells [1]; [12]) of 5.63± 0.09 U/L, an AST (L-02 cells [1]; [12]) of 10.52± 0.97 U/L and an LDH (L-02 cells [1]; [12]) of 1217.18± 41.25 U/L. The ALP (L-02 cells [1]; [13]) was 1.07± 0.14 King's unit /100ml, the ALT (L-02 cells [1]; [13]) was 5.67± 0.12 U/L and the AST (L-02 cells [1]; [13]) was 9.81± 0.74 U/L. The LDH (L-02 cells [1]; [13]) was 1155.13± 35.72 U/L, the ALP (L-02 cells [1]; [14]) was 5.77±0.54 King's unit /100ml and the ALT (L-02 cells [1]; [14]) was 9.90±0.99 U/L. It also gave an AST (L-02 cells [1]; [14]) of 1075.18±91.40 U/L, an LDH (L-02 cells [1]; [14]) of 1.62±0.04 U/L and an ALP (L-02 cells [1]; [15]) of 5.67±0.12 King's unit /100ml. For the same compound, the ALT (L-02 cells [1]; [15]) was 8.81±1.85 U/L, the AST (L-02 cells [1]; [15]) was 1127.68±56.72 U/L and the LDH (L-02 cells [1]; [15]) was 1.54±0.36 U/L. It also gave an ALP (L-02 cells [1]; [16]) of 5.54±0.57 King's unit /100ml, an ALT (L-02 cells [1]; [16]) of 9.33±1.85 U/L and an AST (L-02 cells [1]; [16]) of 1000.00±61.27 U/L. It also gave an LDH (L-02 cells [1]; [16]) of 1.71±0.16 U/L, a viability at 24 h, 5 μmol/L ([2]; 5 μmol/L) of 92.7 ± 3.74% and a viability at 24 h, 10 μmol/L ([2]; 10 μmol/L) of 81.3 ± 6.29%. For the same compound, the viability at 24 h, 15 μmol/L ([2]; 15 μmol/L) was 80.5 ± 3.9% and the “cell viability of L-02 (MTT), in words” value (L-02 cells [3]; dose of 5μmol/L) was “good potency inhibitor against the cell viability”.
